Source: BindingDB's records for doi:10.1016/s0960-894x(00)00080-9 (Granada, 2000)

Target: Choline kinase (Saccharomyces cerevisiae) (UniProt P20485)
Assay: Compound was tested […] for inhibition against purified choline kinase obtained from yeast

Chain of Choline kinase (Saccharomyces cerevisiae) (P20485 whole entry, looked up): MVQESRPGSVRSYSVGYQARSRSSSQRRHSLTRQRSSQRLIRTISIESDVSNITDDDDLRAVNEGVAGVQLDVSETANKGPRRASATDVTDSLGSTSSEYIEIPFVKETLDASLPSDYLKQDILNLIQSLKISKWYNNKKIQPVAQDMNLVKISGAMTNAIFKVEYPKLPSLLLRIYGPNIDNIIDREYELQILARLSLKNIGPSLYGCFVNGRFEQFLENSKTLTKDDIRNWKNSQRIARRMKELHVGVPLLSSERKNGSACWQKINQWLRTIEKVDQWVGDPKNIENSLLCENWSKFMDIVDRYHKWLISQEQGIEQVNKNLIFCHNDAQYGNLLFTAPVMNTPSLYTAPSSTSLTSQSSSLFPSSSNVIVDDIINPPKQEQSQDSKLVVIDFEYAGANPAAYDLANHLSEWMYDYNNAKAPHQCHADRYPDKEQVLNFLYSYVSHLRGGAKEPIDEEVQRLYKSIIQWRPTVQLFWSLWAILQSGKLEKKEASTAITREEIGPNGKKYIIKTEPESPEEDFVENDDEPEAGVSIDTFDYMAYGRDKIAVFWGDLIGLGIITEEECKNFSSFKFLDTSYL

SMILES | IC50 [µM]
O=C(O)c1cc[n+](Cc2ccc(CCc3ccc(C[n+]4ccc(C(=O)O)cc4)cc3)cc2)cc1 [1-{4-[4-(4-carboxy-1-pyridiniumylmethyl)phenethyl]benzyl}-4-pyridiniumcarboxylic acid dibromide] | 137
c1cc(Cn2ccc(=[N+]3CCCC3)cc2)ccc1CCc1ccc(Cn2ccc(=[N+]3CCCC3)cc2)cc1 [1,2-di[4-(4-tetrahydro-1H-1-pyrrolyl-1-pyridiniumylmethyl)phenyl]ethane dibromide] | 20
N#Cc1cc[n+](Cc2ccc(CCc3ccc(C[n+]4ccc(C#N)cc4)cc3)cc2)cc1 [1-{4-[4-(4-cyano-1-pyridiniumylmethyl)phenethyl]benzyl}-4-pyridiniumcarbonitrile dibromide] | > 1000
N=c1ccn(Cc2ccc(CCc3ccc(Cn4ccc(=N)cc4)cc3)cc2)cc1 [1-{4-[4-(4-amino-1-pyridiniumylmethyl)phenethyl]benzyl}-4-pyridiniumamine dibromide] | 23
Cc1cc[n+](Cc2ccc(CCc3ccc(C[n+]4ccc(C)cc4)cc3)cc2)cc1 [1,2-di[4-(4-methyl-1-pyridiniumylmethyl)phenyl]ethane dibromide] | 100
OCc1cc[n+](Cc2ccc(CCc3ccc(C[n+]4ccc(CO)cc4)cc3)cc2)cc1 [1-{4-[4-(4-hydroxymethyl-1-pyridiniumylmethyl)phenethyl]benzyl}-4-pyridiniumylmethanol dibromide] | 100

Stronger by IC50, values ahead:

IC50 [µM] | SMILES
9.6 | c1cc(Cn2ccc(=[N+]3CCCCC3)cc2)ccc1CCc1ccc(Cn2ccc(=[N+]3CCCCC3)cc2)cc1 [1,2-di[4-(4-hexahydro-1-pyridinyl-1-pyridiniumylmethyl)phenyl]ethane dibromide]
15 | c1cc(Cn2ccc(=[N+]3CCCCCC3)cc2)ccc1CCc1ccc(Cn2ccc(=[N+]3CCCCCC3)cc2)cc1 [1,2-di{4-[4-(1-azepanyl)-1-pyridiniumylmethyl]phenyl}ethane dibromide]
17 | C=CC[N+](CC=C)=c1ccn(Cc2ccc(CCc3ccc(Cn4ccc(=[N+](CC=C)CC=C)cc4)cc3)cc2)cc1 [4N,4N-diallyl-1-{4-[4-(4-diallylamino-1-pyridiniumylmethyl)phenethyl]benzyl}-4-pyridiniumamine dibromide]
17 | C[N+](C)=c1ccn(Cc2ccc(CCc3ccc(Cn4ccc(=[N+](C)C)cc4)cc3)cc2)cc1 [4N,4N-dimethyl-1-{4-[4-(4-dimethylamino-1-pyridiniumylmethyl)phenethyl]benzyl}-4-pyridiniumamine dibromide]
